Assay [1] deals with Thymidylate synthase (Streptococcus faecium). Nature of the assay: The inhibitory concentration of compound was evaluated on Streptococcus faecium Thymidylate synthase.
Assay [2] has as its target Thymidylate synthase (Pneumocystis carinii). The assay is described as follows: The inhibitory concentration of compound was evaluated on Pneumocystis carini Thymidylate synthase.

One may read the IC50 as the midpoint of a concentration-inhibition curve.

For the compound `Cc1[nH]c2nc(N)[nH]c(=O)c2c1Sc1ccc2ccccc2c1` [2-Amino-6-methyl-5-(naphthalen-2-ylsulfanyl)-3,7-dihydro-pyrrolo[2,3-d]pyrimidin-4-one], the IC50 in assay [1] was more than 25 µM.

In assay [1], `Cc1[nH]c2nc(N)[nH]c(=O)c2c1Sc1ccncc1` [2-Amino-6-methyl-5-(pyridin-4-ylsulfanyl)-3,7-dihydro-pyrrolo[2,3-d]pyrimidin-4-one] displayed an IC50 of 29 µM. Turning to `Cc1[nH]c2nc(N)[nH]c(=O)c2c1Sc1ccccc1` [2-Amino-6-methyl-5-phenylsulfanyl-3,7-dihydro-pyrrolo[2,3-d]pyrimidin-4-one], the IC50 was 60 µM in assay [2] and more than 30 µM in assay [1].
